Experimental findings from patent publication US12421210B2, “Fused bicyclic heterocycles as therapeutic agents” (NEW YORK UNIVERSITY, priority 2018, dated 2025) are described below.

Read-outs that look alike come from different tables or passages of the source. Bounds are passed on as bounds.

This assay addresses human NAMPT enzyme (His-hNAMPT) (Homo sapiens (Human), UniProt P43490). As to the kind of experiment: NAMPT enzymatic inhibition assay (fluorescence, NADH product). Type of assay: biochemical.
[1] abbreviates: [BPS], read-out: NAMPT IC50 (μM) [BPS].
Setting [2] is: [HDB], read-out: NAMPT IC50 (μM) [HDB].

In general, IC50 refers to the midpoint of a concentration-inhibition curve.

Chain of human NAMPT enzyme (His-hNAMPT) (P43490 whole entry): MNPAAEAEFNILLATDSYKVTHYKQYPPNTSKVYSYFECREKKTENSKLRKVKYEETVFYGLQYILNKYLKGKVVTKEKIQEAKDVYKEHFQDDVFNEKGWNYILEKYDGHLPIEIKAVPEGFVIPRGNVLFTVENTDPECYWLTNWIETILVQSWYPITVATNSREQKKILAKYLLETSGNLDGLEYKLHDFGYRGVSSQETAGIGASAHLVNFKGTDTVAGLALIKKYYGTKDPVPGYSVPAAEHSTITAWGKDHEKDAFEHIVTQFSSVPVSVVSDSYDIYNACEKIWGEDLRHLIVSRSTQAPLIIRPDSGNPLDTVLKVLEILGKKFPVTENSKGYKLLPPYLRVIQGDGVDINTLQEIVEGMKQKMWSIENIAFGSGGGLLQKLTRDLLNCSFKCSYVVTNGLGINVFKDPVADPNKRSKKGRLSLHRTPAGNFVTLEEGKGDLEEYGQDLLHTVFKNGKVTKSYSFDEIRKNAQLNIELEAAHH

Take `COc1cccc(N2C[C@@H]3[C@@H](CCNC(=O)c4cc5ccncc5o4)[C@@H]3C2)c1` [Example 130, N-(2-((1R,5S,6s)-3-(3-methoxyphenyl)-3-azabicyclo[3.1.0]hexan-6-yl)ethyl)furo[2,3-c]pyridine-2-carboxamide]: the IC50 under setting [1] was 0.01 to 0.49 µM.

With `O=C(NCC[C@@H]1[C@H]2CN(c3ncccn3)C[C@@H]12)c1cc(-c2cccnc2)on1` [Example 131, 5-(pyridin-3-yl)-N-(2-((1R,5S,6s)-3-(pyrimidin-2-yl)-3-azabicyclo[3.1.0]hexan-6-yl)ethyl)isoxazole-3-carboxamide], the IC50 under setting [1] lay within 0.01 to 0.49 µM.

Consider `Cc1ccccc1N1C[C@@H]2[C@@H](CCNC(=O)/C=C/c3cccnc3)[C@@H]2C1` [Example 132, (E)-3-(pyridin-3-yl)-N-(2-((1R,5S,6s)-3-(o-tolyl)-3-azabicyclo[3.1.0]hexan-6-yl)ethyl)acrylamide], for which the IC50 under setting [1] is 0.01 to 0.49 µM.

With `Cc1cccc(C)c1N1C[C@@H]2[C@@H](CCNC(=O)/C=C/c3cccnc3)[C@@H]2C1` [Example 133, (E)-N-(2-((1R,5S,6s)-3-(2,6-dimethylphenyl)-3-azabicyclo[3.1.0]hexan-6-yl)ethyl)-3-(pyridin-3-yl)acrylamide], the IC50 under setting [1] lay in the range of 0.01 to 0.49 µM.

In the case of `O=C(NCC[C@@H]1[C@H]2CN(c3ccccc3)C[C@@H]12)c1cc(-c2cccnc2)on1` [Example 134, N-(2-((1R,5S,6s)-3-phenyl-3-azabicyclo[3.1.0]hexan-6-yl)ethyl)-5-(pyridin-3-yl)isoxazole-3-carboxamide], the IC50 under setting [2] was < 0.01 µM.

For the compound `N#Cc1ccccc1N1C[C@@H]2[C@@H](CCNC(=O)/C=C/c3cccnc3)[C@@H]2C1` [Example 135, (E)-N-(2-((1R,5S,6s)-3-(2-cyanophenyl)-3-azabicyclo[3.1.0]hexan-6-yl)ethyl)-3-(pyridin-3-yl)acrylamide], under setting [2], the IC50 fell in the range of 0.01 to 0.49 µM.

Regarding `N#Cc1cccc(N2C[C@@H]3[C@@H](CCNC(=O)/C=C/c4cccnc4)[C@@H]3C2)c1` [Example 136, (E)-N-(2-((1R,5S,6s)-3-(3-cyanophenyl)-3-azabicyclo[3.1.0]hexan-6-yl)ethyl)-3-(pyridin-3-yl)acrylamide], the IC50 under setting [2] was < 0.01 µM.

As to `N#Cc1ccc(N2C[C@@H]3[C@@H](CCNC(=O)/C=C/c4cccnc4)[C@@H]3C2)cc1` [Example 137, (E)-N-(2-((1R,5S,6s)-3-(4-cyanophenyl)-3-azabicyclo[3.1.0]hexan-6-yl)ethyl)-3-(pyridin-3-yl)acrylamide], the IC50 under setting [2] is 0.01 to 0.49 µM.

Turning to `O=C(/C=C/c1cccnc1)NCC[C@@H]1[C@H]2CN(c3cccc(C(F)(F)F)c3)C[C@@H]12` [Example 138, (E)-3-(pyridin-3-yl)-N-(2-((1R,5S,6s)-3-(3-(trifluoromethyl)phenyl)-3-azabicyclo[3.1.0]hexan-6-yl)ethyl)acrylamide], under setting [2], the IC50 lay in the range of 0.01 to 0.49 µM.

On to `O=C(/C=C/c1cccnc1)NCC[C@@H]1[C@H]2CN(c3ccc(C(F)(F)F)cc3)C[C@@H]12` [Example 139, (E)-3-(pyridin-3-yl)-N-(2-((1R,5S,6s)-3-(4-(trifluoromethyl)phenyl)-3-azabicyclo[3.1.0]hexan-6-yl)ethyl)acrylamide], for which the IC50 under setting [2] was in the range of 0.01 to 0.49 µM.

As to `O=C(/C=C/c1cccnc1)NCC[C@@H]1[C@H]2CN(c3ccccc3C(F)(F)F)C[C@@H]12` [Example 140, (E)-3-(pyridin-3-yl)-N-(2-((1R,5S,6S)-3-(2-(trifluoromethyl)phenyl)-3-azabicyclo[3.1.0]hexan-6-yl)ethyl)acrylamide], under setting [2], the IC50 fell in the range of 0.01 to 0.49 µM.

`O=C(/C=C/c1cccnc1)NCC[C@@H]1[C@H]2CN(c3ccc4ccncc4c3)C[C@@H]12` [Example 141, (E)-N-(2-((1R,5S,6s)-3-(isoquinolin-7-yl)-3-azabicyclo[3.1.0]hexan-6-yl)ethyl)-3-(pyridin-3-yl)acrylamide]: the half-inhibitory concentration (IC50) under setting [2] is < 0.01 µM.

With `O=C(/C=C/c1cccnc1)NCC[C@@H]1[C@H]2CN(c3ccc4cnccc4c3)C[C@@H]12` [Example 142, (E)-N-(2-((1R,5S,6s)-3-(isoquinolin-6-yl)-3-azabicyclo[3.1.0]hexan-6-yl)ethyl)-3-(pyridin-3-yl)acrylamide], the IC50 under setting [2] is < 0.01 µM.

`O=C(/C=C/c1cccnc1)NCC[C@@H]1[C@H]2CN(c3ccnc4ccccc34)C[C@@H]12` [Example 143, (E)-3-(pyridin-3-yl)-N-(2-((1R,5S,6s)-3-(quinolin-4-yl)-3-azabicyclo[3.1.0]hexan-6-yl)ethyl)acrylamide]: the IC50 under setting [2] lay in the range of 0.01 to 0.49 µM.

On to `O=C(/C=C/c1cccnc1)NCC[C@@H]1[C@H]2CN(c3ccccc3Cl)C[C@@H]12` [Example 144, (E)-N-(2-((1R,5S,6s)-3-(2-chlorphenyl)-3-azabicyclo[3.1.0]hexan-6-yl)ethyl)-3-(pyridin-3-yl)acrylamide], for which the IC50 under setting [2] lay in the range of 0.01 to 0.49 µM.

On to `O=C(/C=C/c1cccnc1)NCC[C@@H]1[C@H]2CN(c3cccc(Cl)c3)C[C@@H]12` [Example 145, (E)-N-(2-((1R,5S,6s)-3-(3-chlorophenyl)-3-azabicyclo[3.1.0]hexan-6-yl)ethyl)-3-(pyridin-3-yl)acrylamide], for which the IC50 under setting [2] was 0.01 to 0.49 µM.

For `O=C(/C=C/c1cccnc1)NCC[C@@H]1[C@H]2CN(c3ccc(Cl)cc3)C[C@@H]12` [Example 146, (E)-N-(2-((1R,5S,6s)-3-(4-chlorophenyl)-3-azabicyclo[3.1.0]hexan-6-yl)ethyl)-3-(pyridin-3-yl)acrylamide], under setting [2], the IC50 lay within 0.01 to 0.49 µM.

As to `O=C(/C=C/c1cccnc1)NCC[C@@H]1[C@H]2CN(c3ccc(Cl)c(Cl)c3)C[C@@H]12` [Example 147, (E)-N-(2-((1R,5S,6s)-3-(3,4-dichlorophenyl)-3-azabicyclo[3.1.0]hexan-6-yl)ethyl)-3-(pyridin-3-yl)acrylamide], the IC50 under setting [2] was < 0.01 µM.

Consider `O=C(/C=C/c1cccnc1)NCC[C@@H]1[C@H]2CN(c3cc(Cl)cc(Cl)c3)C[C@@H]12` [Example 148, (E)-N-(2-((1R,5S,6s)-3-(3,5-dichlorophenyl)-3-azabicyclo[3.1.0]hexan-6-yl)ethyl)-3-(pyridin-3-yl)acrylamide], for which the IC50 under setting [2] was < 0.01 µM.

For the compound `O=C(/C=C/c1cccnc1)NCC[C@@H]1[C@H]2CN(c3cccnc3)C[C@@H]12` [Example 149, (E)-3-(pyridin-3-yl)-N-(2-((1R,5S,6s)-3-(pyridin-3-yl)-3-azabicyclo[3.1.0]hexan-6-yl)ethyl)acrylamide], the IC50 under setting [2] lay in the range of 0.01 to 0.49 µM.

In the case of `O=C(/C=C/c1cccnc1)NCC[C@@H]1[C@H]2CN(c3cc(Cl)ccc3F)C[C@@H]12` [Example 150, (E)-N-(2-((1R,5S,6s)-3-(5-chloro-2-flurophenyl)-3-azabicyclo[3.1.0]hexan-6-yl)ethyl)-3-(pyridin-3-yl)acrylamide], the IC50 under setting [2] was in the range of 0.01 to 0.49 µM.

For `CSc1cccc(N2C[C@@H]3[C@@H](CCNC(=O)/C=C/c4cccnc4)[C@@H]3C2)c1` [Example 151, (E)-N-(2-((1R,5S,6s)-3-(3-(methylthio)phenyl)-3-azabicyclo[3.1.0]hexan-6-yl)ethyl)-3-(pyridin-3-yl)acrylamide], the IC50 under setting [2] is < 0.01 µM.

Take `CS(=O)(=O)c1cccc(N2C[C@@H]3[C@@H](CCNC(=O)/C=C/c4cccnc4)[C@@H]3C2)c1` [Example 152, (E)-N-(2-((1R,5S,6s)-3-(3-(methylsulfonyl)phenyl)-3-azabicyclo[3.1.0]hexan-6-yl)ethyl)-3-(pyridin-3-yl)acrylamide]: the IC50 under setting [2] was in the range of 0.01 to 0.49 µM.

As to `O=C(/C=C/c1cccnc1)NCC[C@@H]1[C@H]2CN(c3ccc(F)c(Cl)c3)C[C@@H]12` [Example 153, (E)-N-(2-((1R,5S,6s)-3-(3-chloro-4-fluorophenyl)-3-azabicyclo[3.1.0]hexan-6-yl)ethyl)-3-(pyridin-3-yl)acrylamide], the IC50 under setting [2] was 0.01 to 0.49 µM.

For the compound `O=C(/C=C/c1cccnc1)NCC[C@@H]1[C@H]2CN(c3ccncc3)C[C@@H]12` [Example 154, (E)-3-(pyridin-3-yl)-N-(2-((1R,5S,6s)-3-(pyridin-4-yl)-3-azabicyclo[3.1.0]hexan-6-yl)ethyl)acrylamide], under setting [2], the IC50 lay in the range of 0.01 to 0.49 µM.

Turning to `CC(C)(C)c1cccc(N2C[C@@H]3[C@@H](CCNC(=O)/C=C/c4cccnc4)[C@@H]3C2)c1` [Example 155, (E)-N-(2-((1R,5S,6s)-3-(3-(tert-butyl)phenyl)-3-azabicyclo[3.1.0]hexan-6-yl)ethyl)-3-(pyridin-3-yl)acrylamide], the IC50 under setting [2] lay in the range of 0.01 to 0.49 µM.

Turning to `O=C(/C=C/c1cccnc1)NCC[C@@H]1[C@H]2CN(c3ccc4c(c3)C(=O)NC4)C[C@@H]12` [Example 156, (E)-N-(2-((1R,5S,6s)-3-(3-oxoisoindolin-5-yl)-3-azabicyclo[3.1.0]hexan-6-yl)ethyl)-3-(pyridin-3-yl)acrylamide], the IC50 under setting [2] was in the range of 0.01 to 0.49 µM.

For `O=C(/C=C/c1cccnc1)NCC[C@@H]1[C@H]2CN(c3ccc4c(c3)CNC4=O)C[C@@H]12` [Example 157, (E)-N-(2-((1R,5S,6s)-3-(1-oxoisoindolin-5-yl)-3-azabicyclo[3.1.0]hexan-6-yl)ethyl)-3-(pyridin-3-yl)acrylamide], under setting [2], the IC50 is < 0.01 µM.

On to `CC(C)(C)Oc1cccc(N2C[C@@H]3[C@@H](CCNC(=O)/C=C/c4cccnc4)[C@@H]3C2)c1` [Example 158, (E)-N-(2-((1R,5S,6s)-3-(3-(tert-butoxy)phenyl)-3-azabicyclo[3.1.0]hexan-6-yl)ethyl)-3-(pyridin-3-yl)acrylamide], for which the IC50 under setting [2] is < 0.01 µM.

With `O=C(/C=C/c1cccnc1)NCC[C@@H]1[C@H]2CN(c3ccnc(C(F)(F)F)c3)C[C@@H]12` [Example 159, (E)-3-(pyridin-3-yl)-N-(2-((1R,5S,6s)-3-(2-(trifluoromethyl)pyridin-4-yl)-3-azabicyclo[3.1.0]hexan-6-yl)ethyl)acrylamide], the IC50 under setting [2] was < 0.01 µM.

As for `O=C(/C=C/c1cccnc1)NCC[C@@H]1[C@H]2CN(c3ccnc(Cl)c3)C[C@@H]12` [Example 160, (E)-N-(2-((1R,5S,6s)-3-(2-chloropyridin-4-yl)-3-azabicyclo[3.1.0]hexan-6-yl)ethyl)-3-(pyridin-3-yl)acrylamide], the IC50 under setting [2] was < 0.01 µM.

As to `COc1cc(N2C[C@@H]3[C@@H](CCNC(=O)/C=C/c4cccnc4)[C@@H]3C2)ccn1` [Example 161, (E)-N-(2-((1R,5S,6S)-3-(2-methoxypyridin-4-yl)-3-azabicyclo[3.1.0]hexan-6-yl)ethyl)-3-(pyridin-3-yl)acrylamide], under setting [2], the IC50 fell in the range of 0.01 to 0.49 µM.
